Where a name gives a salt, the structure may show the parent alone.

T1 sequence (Q15858 whole entry): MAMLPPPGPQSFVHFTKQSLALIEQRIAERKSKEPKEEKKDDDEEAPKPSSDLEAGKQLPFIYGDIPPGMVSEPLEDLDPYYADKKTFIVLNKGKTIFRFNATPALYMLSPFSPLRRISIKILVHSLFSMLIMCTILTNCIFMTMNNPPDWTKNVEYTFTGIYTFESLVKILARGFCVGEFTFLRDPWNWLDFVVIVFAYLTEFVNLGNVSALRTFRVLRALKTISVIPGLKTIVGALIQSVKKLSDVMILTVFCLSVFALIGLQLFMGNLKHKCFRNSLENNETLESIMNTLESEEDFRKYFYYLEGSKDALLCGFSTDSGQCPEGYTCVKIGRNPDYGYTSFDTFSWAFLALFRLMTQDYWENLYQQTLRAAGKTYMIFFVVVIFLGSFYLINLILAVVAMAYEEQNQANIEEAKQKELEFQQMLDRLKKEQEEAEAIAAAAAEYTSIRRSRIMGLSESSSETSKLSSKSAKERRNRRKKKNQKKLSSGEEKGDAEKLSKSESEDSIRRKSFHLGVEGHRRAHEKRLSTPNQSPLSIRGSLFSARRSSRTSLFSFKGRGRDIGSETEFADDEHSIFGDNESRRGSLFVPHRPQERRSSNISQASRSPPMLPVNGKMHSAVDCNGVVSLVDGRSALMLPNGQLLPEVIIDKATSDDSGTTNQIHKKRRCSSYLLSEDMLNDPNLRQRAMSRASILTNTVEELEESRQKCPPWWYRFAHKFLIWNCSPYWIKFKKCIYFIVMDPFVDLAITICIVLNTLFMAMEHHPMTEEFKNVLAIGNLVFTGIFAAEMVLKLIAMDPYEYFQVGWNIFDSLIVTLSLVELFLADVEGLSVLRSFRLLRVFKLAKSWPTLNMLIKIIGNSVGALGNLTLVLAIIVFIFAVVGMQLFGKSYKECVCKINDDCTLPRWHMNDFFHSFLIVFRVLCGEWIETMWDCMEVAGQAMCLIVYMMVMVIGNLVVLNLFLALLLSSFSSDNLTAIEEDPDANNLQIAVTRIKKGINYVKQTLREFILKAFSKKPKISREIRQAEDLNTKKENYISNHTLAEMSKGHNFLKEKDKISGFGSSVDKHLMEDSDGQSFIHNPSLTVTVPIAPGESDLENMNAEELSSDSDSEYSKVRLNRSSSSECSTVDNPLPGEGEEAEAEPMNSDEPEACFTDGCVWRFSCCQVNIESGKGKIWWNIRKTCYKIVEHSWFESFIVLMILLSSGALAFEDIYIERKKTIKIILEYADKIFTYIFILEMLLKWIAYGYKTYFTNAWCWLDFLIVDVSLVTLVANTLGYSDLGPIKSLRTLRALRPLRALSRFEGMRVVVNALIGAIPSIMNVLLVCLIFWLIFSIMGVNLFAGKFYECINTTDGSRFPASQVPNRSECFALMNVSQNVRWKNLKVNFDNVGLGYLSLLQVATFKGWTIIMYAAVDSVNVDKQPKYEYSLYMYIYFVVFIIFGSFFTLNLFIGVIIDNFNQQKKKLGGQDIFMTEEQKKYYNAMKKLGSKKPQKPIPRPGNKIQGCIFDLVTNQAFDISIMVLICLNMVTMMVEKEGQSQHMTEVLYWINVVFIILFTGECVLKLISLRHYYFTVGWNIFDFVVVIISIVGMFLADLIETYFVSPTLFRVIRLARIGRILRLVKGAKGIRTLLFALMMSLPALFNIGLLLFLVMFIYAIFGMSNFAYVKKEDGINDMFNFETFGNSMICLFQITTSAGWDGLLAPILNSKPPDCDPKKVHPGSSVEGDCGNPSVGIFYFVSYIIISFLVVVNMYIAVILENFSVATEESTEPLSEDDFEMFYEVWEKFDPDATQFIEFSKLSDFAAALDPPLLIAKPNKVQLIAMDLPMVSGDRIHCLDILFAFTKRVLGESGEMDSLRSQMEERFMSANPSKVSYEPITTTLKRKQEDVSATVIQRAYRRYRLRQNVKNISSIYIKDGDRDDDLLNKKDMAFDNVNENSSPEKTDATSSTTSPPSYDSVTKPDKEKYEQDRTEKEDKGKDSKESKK

This assay has as its target T1, NaV1.7 (Homo sapiens, UniProt Q15858).
T1 construct: expressed in transfected cells; host or cells: HEK293 (tetracycline-inducible)
Briefly: Automated patch clamp (Qube 384), internal block of NaV1.7. It counts as cell-based. The note with it: IC50, compound in internal solution, HEK293 cells, read-out: Nav1.7 Intracellular Inhibition. In short, it runs like this:
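Tetracycline-induced HEK293 cells, whole-cell Qube recording at 22 degrees; compounds dissolved in internal solution (CsF-based, pH 7.3), exchanged after baseline. Held at −100 mV, 10 ms pulses to −20 mV at 5 Hz for 10 min; remaining current (last 3 points) vs baseline, rundown-corrected with no-drug cells; Hill-fit IC50.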
For orientation: In patch-clamp work, channel activity is measured electrically.
As for `CCNC(=O)C1CCC[N+](CC(=O)Nc2c(C)cccc2C)(Cc2ccccc2)C1.[Br-]` (stereo not drawn) [Compound 54A, 1-benzyl-1-(2-((2,6-dimethylphenyl)amino)-2-oxoethyl)-3-(ethylcarbamoyl) piperidin-1-ium bromide], the IC50 was in the range of 300 to 1000 nM. Then “1-benzyl-1-(2-((2-(dimethylcarbamoyl)-6-methylphenyl) amino)-2-oxoethyl) azepan-1-ium bromide [Compound 81A]”, with 300 to 1000 nM; and `CCOC(=O)C1CCC[N+](CC(=O)Nc2c(C)cccc2C)(Cc2ccccc2)C1.[Br-]` (stereo not drawn) [Compound 45A, 1-benzyl-1-(2-((2,6-dimethylphenyl)amino)-2-oxoethyl)-3-(ethoxycarbonyl) piperidin-1-ium bromide], with 300 to 1000 nM. Then `CCCCNc1ccc(NC(=O)C[N+]2(Cc3ccccc3)CCCCCC2)cc1.O=C[O-]` [Compound 41A, 1-benzyl-1-(2-((4-(butylamino)phenyl)amino)-2-oxoethyl) azepan-1-ium formate], with 3000 to 10000 nM; and `Cc1cccc(C)c1N1CCCC([N+]2(Cc3ccccc3)CCCC2)C1=O.[Br-]` (stereo not drawn) [Compound 91A, 1-benzyl-1-(1-(2,6-dimethylphenyl)-2-oxopiperidin-3-yl) pyrrolidin-1-ium bromide], with 1000 to 3000 nM.

In the case of `Cc1cccc(C)c1NC(=O)C[N+]1(Cc2ccccc2)CCCC(C(=O)N2CCCCC2)C1` (stereo not drawn) [Compound 63A], the IC50 lay in the range of 300 to 1000 nM. `[2H]c1c([2H])c([2H])c(C[N+]2(CC(=O)Nc3c(C)cccc3C)CCCCCC2)c([2H])c1[2H].[Cl-]` [Compound 33A, 1-(2-((2,6-dimethylphenyl)amino)-2-oxoethyl)-1-((phenyl-d5)methyl) azepan-1-ium chloride]: the IC50 is 300 to 1000 nM. Then `CCN(CC)C(=O)C1CCC[N+](CC(=O)Nc2c(C)cccc2C)(Cc2ccccc2)C1` (stereo not drawn) [Compound 66A], with 1000 to 3000 nM; and `Cc1cccc(C)c1NC(=O)C[N+]1(Cc2ccccc2)CCCC(C(N)=O)C1.[Br-]` (mixture of isomers) [Compound 53A, 1-benzyl-3-carbamoyl-1-(2-((2,6-dimethylphenyl)amino)-2-oxoethyl) piperidin-1-ium bromide], with 300 to 1000 nM; and `CCCc1cccc(C)c1NC(=O)C[N+]1(Cc2ccccc2)CCCCCC1.[Br-]` [Compound 75A], with 1000 to 3000 nM. Then `Cc1cccc(C)c1C(=O)OCC[N+]1(Cc2ccccc2)CCCCCC1.[Br-]` [Compound 82A, 1-benzyl-1-(2-((2,6-dimethylbenzoyl)oxy)ethyl) azepan-1-ium bromide], with 300 to 1000 nM; and `Cc1cccc(C)c1N(C)C(=O)C[N+]1(Cc2ccccc2)CCCCCC1` [Compound 38A, 1-benzyl-1-(2-((2,6-dimethylphenyl) (methyl)amino)-2-oxoethyl) azepan-1-ium formate], with 1000 to 3000 nM; and `Cc1cccc(C)c1N1CCC([N+]2(Cc3ccccc3)CCCCC2)C1=O.[Br-]` (stereo not drawn) [Compound 89A, 1-benzyl-1-(1-(2,6-dimethylphenyl)-2-oxopyrrolidin-3-yl)piperidin-1-ium bromide], with 1000 to 3000 nM. The result for `Cc1cccc(C(C)C)c1NC(=O)C[N+]1(Cc2ccccc2)CCCCCC1.[Br-]` [Compound 74A] reads 300 to 1000 nM. Consider `Cc1cccc(C)c1NC(=O)C[N+]1(Cc2ccccc2)CCCC(C(=O)OC(C)C)C1` (mixture of isomers) [Compound 46A, 1-benzyl-1-(2-((2,6-dimethylphenyl)amino)-2-oxoethyl)-3-(isopropoxycarbonyl) piperidin-1-ium trifluoroacetate salt], for which the IC50 was 300 to 1000 nM. The result for `Cc1cccc(C)c1NC(=O)C[N+]1(Cc2ccccc2)CCCC(C(=O)N(C)C)C1.[Br-]` (stereo not drawn) [Compound 65A] reads 300 to 1000 nM. Then `CCOc1cccc(C)c1NC(=O)C[N+]1(Cc2ccccc2)CCCCCC1.[Br-]` [Compound 77A], with 300 to 1000 nM; and `Cc1cccc(C)c1NC(=O)C[N+]1(Cc2ccccc2)CCCC(C(=O)NC(C)C)C1` (stereo not drawn) [Compound 56A], with 1000 to 3000 nM. The result for `COC(=O)C1CC[N+](CC(=O)Nc2c(C)cccc2C)(Cc2ccccc2)CC1.[Br-]` (stereo not drawn) [Compound 44A, 1-benzyl-1-(2-((2,6-dimethylphenyl)amino)-2-oxoethyl)-4-(methoxycarbonyl) piperidin-1-ium bromide] reads below 300 nM. For `Cc1cccc(C#N)c1NC(=O)C[N+]1(Cc2ccccc2)CCCCCC1.[Br-]` [Compound 72A], the IC50 is 300 to 1000 nM. The result for `Cc1cccc(-c2ccccc2)c1NC(=O)C[N+]1(Cc2ccccc2)CCCCCC1.[Br-]` [Compound 76A] reads 1000 to 3000 nM. Then `COC(=O)c1ccc(C[N+]2(CC(=O)Nc3c(C)cccc3C)CCCCC2)cc1.[Br-]` [Compound 36A, 1-(2-((2,6-dimethylphenyl)amino)-2-oxoethyl)-1-(4-(methoxycarbonyl)benzyl) piperidin-1-ium bromide], with 3000 to 10000 nM; and `CCCNC(=O)C1CCC[N+](CC(=O)Nc2c(C)cccc2C)(Cc2ccccc2)C1` (stereo not drawn) [Compound 57A], with 300 to 1000 nM. The result for `COC(=O)c1cccc(C[N+]2(CC(=O)Nc3c(C)cccc3C)CCCCC2)c1.[Br-]` [Compound 35A, 1-(2-((2,6-dimethylphenyl)amino)-2-oxoethyl)-1-(3-(methoxycarbonyl)benzyl) piperidin-1-ium bromide] reads 1000 to 3000 nM; that for `Cc1cccc(F)c1NC(=O)C[N+]1(Cc2ccccc2)CCCCCC1.[Br-]` [Compound 69A, 1-benzyl-1-(2-((2-fluoro-6-methylphenyl)amino)-2-oxoethyl)azepan-1-ium bromide], 300 to 1000 nM.

As for `COC(=O)c1ccccc1C[N+]1(CC(=O)Nc2c(C)cccc2C)CCCCC1.[Br-]` [Compound 37A, 1-(2-((2,6-dimethylphenyl)amino)-2-oxoethyl)-1-(2-(methoxycarbonyl)benzyl) piperidin-1-ium bromide], the IC50 was 300 to 1000 nM.

`CNC(=O)C1CCC[N+](CC(=O)Nc2c(C)cccc2C)(Cc2ccccc2)C1` (stereo not drawn) [Compound 55A]: the IC50 lay in the range of 300 to 1000 nM. Then `Cc1cccc(C)c1NC(=O)C[N+]1(Cc2ccccc2)CCCC(C(=O)N2CCCC2)C1` (stereo not drawn) [Compound 62A], with 300 to 1000 nM; and `CC[N+](CC)(CCCc1ccccc1)CC(=O)Nc1c(C)cccc1C.[Br-]` [Compound 86A, N-(2-((2,6-dimethylphenyl)amino)-2-oxoethyl)-N, N-diethyl-3-phenylpropan-1-aminium bromide], with 1000 to 3000 nM; and `Cc1cccc(C)c1N1CCC([N+]2(Cc3ccccc3)CCCCCCC2)C1=O.[Br-]` (stereo not drawn) [Compound 90A], with 300 to 1000 nM. Then `COc1cccc(C)c1NC(=O)C[N+]1(Cc2ccccc2)CCCCCC1` [Compound 71A], with 300 to 1000 nM; and `Cc1cccc(C)c1NC(=O)C[N+]1(Cc2ccccc2)CCCC(F)(F)C1.[Br-]` (stereo not drawn) [Compound 32A, 1-benzyl-1-(2-((2,6-dimethylphenyl)amino)-2-oxoethyl)-3,3-difluoropiperidin-1-ium bromide], with 300 to 1000 nM. The result for `CCCOC(=O)C1CCC[N+](CC(=O)Nc2c(C)cccc2C)(Cc2ccccc2)C1.[Br-]` (stereo not drawn) [Compound 47A, 1-benzyl-1-(2-((2,6-dimethylphenyl)amino)-2-oxoethyl)-3-(propoxycarbonyl) piperidin-1-ium bromide] reads 1000 to 3000 nM; that for `CCC(=O)Oc1cccc(C)c1NC(=O)C[N+]1(Cc2ccccc2)CCCCCC1.[Br-]` [Compound 80A, 1-benzyl-1-(2-((2-methyl-6-(propionyloxy)phenyl)amino)-2-oxoethyl) azepan-1-ium bromide], 300 to 1000 nM. As for `CCC(=O)OC1CCC[N+](CC(=O)Nc2c(C)cccc2C)(Cc2ccccc2)C1.[Br-]` (stereo not drawn) [Compound 52A, 1-benzyl-1-(2-((2,6-dimethylphenyl)amino)-2-oxoethyl)-3-(propionyloxy) piperidin-1-ium bromide], the IC50 was below 300 nM. For `CCCOC(=O)N1CCC[N+](CC(=O)Nc2c(C)cccc2C)(Cc2ccccc2)CC1.[Br-]` (stereo not drawn) [Compound 68A, 1-benzyl-1-(2-((2,6-dimethylphenyl)amino)-2-oxoethyl)-4-(propoxycarbonyl)-1,4-diazepan-1-ium bromide], the IC50 is 300 to 1000 nM.
